Assay results taken from ChEMBL document CHEMBL1133418, “Synthesis and biological evaluation of novel 9-functional heterocyclic coupled 7-deoxy-9-dihydropaclitaxel analogue” (2000).

Key:
Assay type in all cases: functional
ECa-109 cell line [1] = experiment: Cytotoxicity ratio was evaluated against tumor cell line ECa-109 (Human esophagus cancer) after 72 hr incubation relative to paclitaxel (ED50 = […])
MCF7 [2] = experiment: Cytotoxicity ratio was evaluated against human tumor cell line MCF-7 (Human breast cancer) after 72 hr incubation relative to paclitaxel (ED50 = […])
SK-OV-3 [3] = experiment: Cytotoxicity ratio was evaluated against human tumor cell line SKOV3 (Human ovarian cancer) after 72 hr incubation relative to paclitaxel (ED50 = […])
[4] = molecular target: Tubulin alpha chain (Sus scrofa) (UniProt P02550); experiment: Effective dose which causes polymerization of 50% of the tubulin present at 37 degree C in Microtubule assembly assay
WiDr [5] = experiment: Cytotoxicity ratio was evaluated against human tumor cell line WIDR (Human colon cancer) after 72 hr incubation relative to paclitaxel (ED50 = […])
ECa-109 cell line [6] = experiment: Cytotoxicity ratio was evaluated against tumor cell line ECa-109 (Human esophagus cancer) after 72 hr incubation
MCF7 [7] = experiment: Cytotoxicity ratio was evaluated against human tumor cell line MCF-7 (Human breast cancer) after 72 h incubation
SK-OV-3 [8] = experiment: Cytotoxicity ratio was evaluated against human tumor cell line SKOV3 (Human ovarian cancer) after 72 hr incubation
WiDr [9] = experiment: Cytotoxicity ratio was evaluated against human tumor cell line WIDR (Human colon cancer) after 72 hr incubation

Chain of Tubulin alpha chain (Sus scrofa) (P02550 whole entry, looked up): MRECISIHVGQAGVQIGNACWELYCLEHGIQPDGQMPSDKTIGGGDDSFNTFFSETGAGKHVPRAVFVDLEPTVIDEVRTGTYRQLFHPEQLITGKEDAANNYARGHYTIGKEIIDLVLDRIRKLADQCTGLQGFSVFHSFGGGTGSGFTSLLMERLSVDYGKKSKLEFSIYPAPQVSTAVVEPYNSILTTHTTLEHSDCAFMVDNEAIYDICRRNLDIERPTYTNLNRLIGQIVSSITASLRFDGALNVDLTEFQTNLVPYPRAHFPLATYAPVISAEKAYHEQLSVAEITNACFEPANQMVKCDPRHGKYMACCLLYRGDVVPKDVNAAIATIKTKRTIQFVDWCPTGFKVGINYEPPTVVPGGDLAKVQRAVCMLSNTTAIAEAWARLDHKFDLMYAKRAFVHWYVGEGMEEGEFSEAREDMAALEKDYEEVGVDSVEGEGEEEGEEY

SMILES	ED50 [4] [nM]	Ratio (ECa-109 cell line [1])	Ratio (MCF7 [2])	Ratio (SK-OV-3 [3])	Ratio (WiDr [5])	Ratio (ECa-109 cell line [6])	Ratio (MCF7 [7])	Ratio (SK-OV-3 [8])	Ratio (WiDr [9])
CC(=O)O[C@@H]1C2=C(C)[C@@H](OC(=O)[C@H](O)[C@@H](NC(=O)c3ccccc3)c3ccccc3)C[C@@](O)([C@@H](OC(=O)c3ccccc3)C3[C@@](C)(CC[C@H]4OC[C@@]34OC(C)=O)[C@H]1OC(=O)CCC(=O)OC[C@H]1O[C@@H](n3cnc4c(Cl)ncnc43)[C@H](O)[C@@H]1O)C2(C)C (stereo not given in full)	> 15000	0.18	3.68	2.24	2.16	–	–	–	–
CC(=O)O[C@@H]1C2=C(C)[C@@H](OC(=O)[C@H](O)[C@@H](NC(=O)c3ccccc3)c3ccccc3)C[C@@](O)([C@@H](OC(=O)c3ccccc3)C3[C@@](C)(CC[C@H]4OC[C@@]34OC(C)=O)[C@H]1OC(=O)CCC(=O)OC[C@H]1O[C@@H](n3ccc(NC(=O)c4ccccc4)nc3=O)C[C@@H]1O)C2(C)C (stereo not given in full)	900	1.03	1.63	1.98	2.43	–	–	–	–
CC(=O)O[C@@H]1C2=C(C)[C@@H](OC(=O)[C@H](O)[C@@H](NC(=O)c3ccccc3)c3ccccc3)C[C@@](O)([C@@H](OC(=O)c3ccccc3)C3[C@@](C)(CC[C@H]4OC[C@@]34OC(C)=O)[C@H]1OC(=O)CCC(=O)OC[C@H]1O[C@@H](n3cc(C)c(=O)[nH]c3=O)C[C@@H]1N=[N+]=[N-])C2(C)C (stereo not given in full)	> 20000	3.54	3.13	3.41	2.62	–	–	–	–

The next lines start with results.

ED50 [4] [nM]	SMILES	Ratio (ECa-109 cell line [1])	Ratio (MCF7 [2])	Ratio (SK-OV-3 [3])	Ratio (WiDr [5])	Ratio (ECa-109 cell line [6])	Ratio (MCF7 [7])	Ratio (SK-OV-3 [8])	Ratio (WiDr [9])
400	CC(=O)O[C@H]1C(=O)[C@@]2(C)[C@H]([C@H](OC(=O)c3ccccc3)[C@]3(O)C[C@H](OC(=O)[C@H](O)[C@@H](NC(=O)c4ccccc4)c4ccccc4)C(C)=C1C3(C)C)[C@]1(OC(C)=O)CO[C@@H]1C[C@@H]2O [PACLITAXEL]	–	–	–	–	1	1	1	1
> 15000	CC(=O)O[C@@H]1C2=C(C)[C@@H](OC(=O)[C@H](O)[C@@H](NC(=O)c3ccccc3)c3ccccc3)C[C@@](O)([C@@H](OC(=O)c3ccccc3)C3[C@@](C)(CC[C@H]4OC[C@@]34OC(C)=O)[C@H]1OC(=O)CCC(=O)OC[C@H]1O[C@@H](n3cc(Br)c(=O)[nH]c3=O)[C@H](O)[C@@H]1O)C2(C)C (stereo not given in full)	0.16	2.64	4.06	3.87	–	–	–	–
